Source: ChEMBL document CHEMBL1201862, “PubChem BioAssay data set” (2004)
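Growth conditions: 96-well plates. Treatment: test compound, 48 hours, 5 concentrations. Analysis: linear interpolation between bracketing concentrations; unreached endpoints set to highest concentration. Here, GI50 denotes the concentration required for 50% inhibition of growth.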 Active and inactive are the calls of the source. No stated cut-off is given here; in the data, active = GI50 up to about 1.1 µM and inactive = higher.

What was measured:
Experiment in all cases: growth of human tumour cells (NCI), 48 h
[1] = test system: 786-0
[2] = test system: CAKI-1
[3] = test system: HCC 2998
[4] = test system: HOP-92
[5] = test system: KM12
[6] = test system: LOX IMVI
[7] = test system: MDA-MB-435
[8] = test system: MDA-N
[9] = test system: Malme-3M
[10] = test system: NCI/ADR-RES
[11] = test system: OVCAR-4
[12] = test system: RPMI-8226
[13] = test system: RXF 393
[14] = test system: SK-OV-3
[15] = test system: SNB-19
[16] = test system: T47D
[17] = test system: UACC-257
[18] = test system: CCRF-CEM
[19] = test system: COLO 205

| SMILES | GI50 [1] | GI50 [2] | GI50 [3] | GI50 [4] | GI50 [5] | GI50 [6] | GI50 [7] | GI50 [8] | GI50 [9] | GI50 [10] | GI50 [11] | GI50 [12] | GI50 [13] | GI50 [14] | GI50 [15] | GI50 [16] | GI50 [17] | GI50 [18] | GI50 [19] |
| --- | --- | --- | --- | --- | --- | --- | --- | --- | --- | --- | --- | --- | --- | --- | --- | --- | --- | --- | --- |
| O=S(=O)(Nc1nc2ccccc2nc1Nc1cccc2ccccc12)c1ccccc1 | 17 µM (inactive) | 31.8 µM (inactive) | 2.16 µM (inactive) | 2.7 µM (inactive) | 5.61 µM (inactive) | > 100 µM (inactive) | > 100 µM (inactive) | > 100 µM (inactive) | 4.48 µM (inactive) | 13.6 µM (inactive) | 1.24 µM (inactive) | 2.73 µM (inactive) | 17.5 µM (inactive) | 19.9 µM (inactive) | 20.1 µM (inactive) | 5.26 µM (inactive) | 39.4 µM (inactive) | – | – |
| COc1cccc2c1C(=O)c1c(O)c3c(c(O)c1C2=O)CC(O)(C(O)CO)CC3OC1CC2C(OC3COCC(C#N)N32)C(C)O1 (configuration not stated) | < 0.01 µM (active) | – | < 0.01 µM (active) | < 0.01 µM (active) | < 0.01 µM (active) | < 0.01 µM (active) | < 0.01 µM (active) | < 0.01 µM (active) | < 0.01 µM (active) | < 0.01 µM (active) | < 0.01 µM (active) | – | < 0.01 µM (active) | < 0.01 µM (active) | < 0.01 µM (active) | < 0.01 µM (active) | < 0.01 µM (active) | < 0.01 µM (active) | < 0.01 µM (active) |
| O=C(C[N+]12CN3CN(CN(C3)C1)C2)c1ccc(-c2ccccc2)cc1 | 17.7 µM (inactive) | 43.9 µM (inactive) | 15.4 µM (inactive) | 33.5 µM (inactive) | 32 µM (inactive) | 15.3 µM (inactive) | 36.5 µM (inactive) | 21.8 µM (inactive) | 21.3 µM (inactive) | 33.4 µM (inactive) | 51.4 µM (inactive) | – | 19.1 µM (inactive) | – | 22.6 µM (inactive) | 37.2 µM (inactive) | 15.8 µM (inactive) | 1.71 µM (inactive) | – |
| CC1(C)C(CCO)CC1n1cc(I)c(=O)[nH]c1=O (configuration not stated) | > 100 µM (inactive) | > 100 µM (inactive) | > 100 µM (inactive) | > 100 µM (inactive) | > 100 µM (inactive) | > 100 µM (inactive) | > 100 µM (inactive) | > 100 µM (inactive) | – | > 100 µM (inactive) | > 100 µM (inactive) | > 100 µM (inactive) | > 100 µM (inactive) | > 100 µM (inactive) | > 100 µM (inactive) | > 100 µM (inactive) | > 100 µM (inactive) | > 100 µM (inactive) | > 100 µM (inactive) |
| COc1ccc(-c2cc(=O)c3c(O)cc(C)cc3o2)cc1OC | > 100 µM (inactive) | – | 79.6 µM (inactive) | 22.8 µM (inactive) | > 100 µM (inactive) | > 100 µM (inactive) | > 100 µM (inactive) | > 100 µM (inactive) | > 100 µM (inactive) | > 100 µM (inactive) | > 100 µM (inactive) | > 100 µM (inactive) | > 100 µM (inactive) | > 100 µM (inactive) | > 100 µM (inactive) | > 100 µM (inactive) | > 100 µM (inactive) | > 100 µM (inactive) | > 100 µM (inactive) |
| O[C@@H]1C[C@@H]2N[C@@](O)(C[C@@H]2O)[C@H]1O | > 100 µM (inactive) | – | > 100 µM (inactive) | > 100 µM (inactive) | > 100 µM (inactive) | > 100 µM (inactive) | > 100 µM (inactive) | > 100 µM (inactive) | > 100 µM (inactive) | > 100 µM (inactive) | > 100 µM (inactive) | > 100 µM (inactive) | > 100 µM (inactive) | > 100 µM (inactive) | > 100 µM (inactive) | > 100 µM (inactive) | > 100 µM (inactive) | > 100 µM (inactive) | > 100 µM (inactive) |
| CCCCn1c(C)c(C(=O)OCC)s/c1=N/Nc1nc2ccccc2nc1-c1ccccc1 | 49.1 µM (inactive) | > 100 µM (inactive) | > 100 µM (inactive) | 44 µM (inactive) | – | > 100 µM (inactive) | > 100 µM (inactive) | > 100 µM (inactive) | – | > 100 µM (inactive) | 65 µM (inactive) | 86.3 µM (inactive) | > 100 µM (inactive) | 53.3 µM (inactive) | 40.6 µM (inactive) | 52.1 µM (inactive) | > 100 µM (inactive) | > 100 µM (inactive) | > 100 µM (inactive) |
| CC1=CC(=O)/C(=C/n2c(=S)[nH]c3ccccc32)C(=O)O1 | > 100 µM (inactive) | > 100 µM (inactive) | > 100 µM (inactive) | > 100 µM (inactive) | > 100 µM (inactive) | > 100 µM (inactive) | > 100 µM (inactive) | > 100 µM (inactive) | – | > 100 µM (inactive) | > 100 µM (inactive) | > 100 µM (inactive) | 51.5 µM (inactive) | > 100 µM (inactive) | > 100 µM (inactive) | > 100 µM (inactive) | > 100 µM (inactive) | 58.9 µM (inactive) | > 100 µM (inactive) |
| NC(=O)NC(=O)c1cccc(NC(=O)CI)c1 | < 0.01 µM (active) | < 0.01 µM (active) | 0.228 µM (active) | < 0.01 µM (active) | 0.0391 µM (active) | < 0.0132 µM (active) | < 0.01 µM (active) | < 0.01 µM (active) | – | 0.039 µM (active) | 0.148 µM (active) | < 0.0128 µM (active) | 0.0513 µM (active) | 0.0607 µM (active) | 0.646 µM (active) | 1.66 µM (inactive) | < 0.0252 µM (active) | < 0.01 µM (active) | < 0.01 µM (active) |
| NCCO/C=C/C(N)C(=O)O (configuration not stated) [AMINOETHOXYVINYLGLYCINE] | > 100 µM (inactive) | > 100 µM (inactive) | > 100 µM (inactive) | > 100 µM (inactive) | > 100 µM (inactive) | > 100 µM (inactive) | > 100 µM (inactive) | > 100 µM (inactive) | – | > 100 µM (inactive) | > 100 µM (inactive) | > 100 µM (inactive) | > 100 µM (inactive) | > 100 µM (inactive) | > 100 µM (inactive) | > 100 µM (inactive) | > 100 µM (inactive) | > 100 µM (inactive) | > 100 µM (inactive) |
| CN(C(=O)C12C3(C(=O)O)C4C5(C(=O)O)C3C1(C(=O)O)C5C42C(=O)O)C(C)(C)C (configuration not stated) | > 100 µM (inactive) | > 100 µM (inactive) | > 100 µM (inactive) | > 100 µM (inactive) | > 100 µM (inactive) | > 100 µM (inactive) | > 100 µM (inactive) | > 100 µM (inactive) | – | > 100 µM (inactive) | > 100 µM (inactive) | – | > 100 µM (inactive) | – | > 100 µM (inactive) | > 100 µM (inactive) | > 100 µM (inactive) | > 100 µM (inactive) | > 100 µM (inactive) |
| COc1cc(C(c2cc3c(cc2O)OCO3)N2CCCC2)cc(OC)c1OC (configuration not stated) | 14.7 µM (inactive) | 13.6 µM (inactive) | 28.5 µM (inactive) | 7.96 µM (inactive) | 18.2 µM (inactive) | 14.6 µM (inactive) | 13.4 µM (inactive) | 13.4 µM (inactive) | 6.73 µM (inactive) | 17.3 µM (inactive) | 17 µM (inactive) | 11.6 µM (inactive) | – | 30.3 µM (inactive) | 19.3 µM (inactive) | 23.2 µM (inactive) | 17.5 µM (inactive) | 1.79 µM (inactive) | 11.7 µM (inactive) |
| O=C1CCCCCCCCCCC1CCCCCBr (configuration not stated) | 32.4 µM (inactive) | 31.2 µM (inactive) | 18.5 µM (inactive) | 18.4 µM (inactive) | 23.1 µM (inactive) | 19 µM (inactive) | 40.8 µM (inactive) | 31.8 µM (inactive) | 15.8 µM (inactive) | 21.7 µM (inactive) | 16.9 µM (inactive) | – | 19.6 µM (inactive) | 57.9 µM (inactive) | 25.8 µM (inactive) | 24.2 µM (inactive) | 21.3 µM (inactive) | 17 µM (inactive) | 19.4 µM (inactive) |
| Cc1ccc(Nc2nc(=O)[nH]c(=O)[nH]2)cc1N | > 100 µM (inactive) | > 100 µM (inactive) | > 100 µM (inactive) | > 100 µM (inactive) | > 100 µM (inactive) | > 100 µM (inactive) | 26.5 µM (inactive) | > 100 µM (inactive) | > 100 µM (inactive) | > 100 µM (inactive) | > 100 µM (inactive) | > 100 µM (inactive) | – | > 100 µM (inactive) | > 100 µM (inactive) | > 100 µM (inactive) | > 100 µM (inactive) | > 100 µM (inactive) | > 100 µM (inactive) |
| COc1ccc(Nc2nc3cc(C(F)(F)F)ccc3n3cccc23)cc1OC | 8.15 µM (inactive) | 27.9 µM (inactive) | 14 µM (inactive) | 15.7 µM (inactive) | 10.3 µM (inactive) | 4.7 µM (inactive) | 15.7 µM (inactive) | 12.6 µM (inactive) | 24.2 µM (inactive) | 15.6 µM (inactive) | – | 13.6 µM (inactive) | 10.8 µM (inactive) | 27.9 µM (inactive) | 19.4 µM (inactive) | 6.37 µM (inactive) | 17.5 µM (inactive) | 10.7 µM (inactive) | – |
